Assay results as given in publication PMC5701912, “Arylacetamide Deacetylase Is Involved in Vicagrel Bioactivation in Humans” (Frontiers in Pharmacology, 2017).

Tests used:
[1] = tested on: CYP450s (mainly mediated by CYP2C19); details: ref Hagihara et al., 2009; Farid et al., 2010; cited from earlier work
CES1 [2] = details: ref Hagihara et al., 2009; Farid et al., 2010; cited from earlier work
[3] = Inhibition of vicagrel hydrolase activity in HIM; type: in vitro ADME, human; details: inhibitor 20 μM, vicagrel 1 μM
Description: To confirm that the esterase isoform is involved in vicagrel hydrolysis in humans, we conducted inhibition studies on HIM, and recombinant CES2 and AADAC using representative esterase inhibitors. […] Inhibitors (benzbromarone: 10 μM; BNPP: 1 mM; others: 20 μM) were preincubated with different enzyme sources for 5 min at 37°C, and reactions were initiated by adding vicagrel solution (1 μM).

[4] = Hydrolase activity (kinetics and marker substrates) in human intestine microsomes
Description: (§1) (1) v = Vmax × S/(Km + S)

[5] = Hydrolase activity (kinetics and marker substrates) in human liver microsomes; type: in vitro ADME
Description: as §1

CES1 [6] = molecular target: T1, CES1 (Homo sapiens, UniProt P23141); experiment: Hydrolase activity by recombinant human CES1; type: in vitro ADME
T1 construct: purchased Cypex Ltd. (Scotland, United Kingdom)
T1 sequence (P23141 18-567): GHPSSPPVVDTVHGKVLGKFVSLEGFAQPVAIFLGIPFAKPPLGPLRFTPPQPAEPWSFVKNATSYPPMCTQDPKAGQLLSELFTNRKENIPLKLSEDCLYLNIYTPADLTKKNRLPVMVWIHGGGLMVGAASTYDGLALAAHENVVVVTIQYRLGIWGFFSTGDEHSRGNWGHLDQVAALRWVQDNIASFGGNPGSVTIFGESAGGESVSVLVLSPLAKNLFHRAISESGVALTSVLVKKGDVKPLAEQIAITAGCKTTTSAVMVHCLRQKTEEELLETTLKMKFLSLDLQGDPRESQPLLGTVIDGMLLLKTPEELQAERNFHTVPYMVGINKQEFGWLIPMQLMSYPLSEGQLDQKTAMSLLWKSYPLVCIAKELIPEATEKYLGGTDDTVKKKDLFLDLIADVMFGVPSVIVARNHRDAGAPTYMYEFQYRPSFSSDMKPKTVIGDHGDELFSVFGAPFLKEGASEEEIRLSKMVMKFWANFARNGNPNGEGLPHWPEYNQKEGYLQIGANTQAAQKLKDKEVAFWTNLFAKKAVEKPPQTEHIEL
Description: as §1

[7] = parameters: method as in Qiu et al., 2013; details: rats and beagle dogs, ref Qiu et al., 2013, cited from earlier work
[8] = Hydrolase activity in dog intestine microsomes; type: in vitro ADME
Description: as §1

[9] = parameters: method as in Liu et al., 2017; details: healthy subjects; oral 5 mg vicagrel and 75 mg clopidogrel; ref Liu et al., 2017; cited from earlier work
AADAC [10] = experiment: Contribution of AADAC to vicagrel hydrolase activity in HIM (RAF method); type: in vitro ADME, human; details: phenacetin as probe
Description: (§2) The RAF method was applied as the ratio of activity values to evaluate the contribution of CES2 and AADAC to vicagrel hydrolysis in HIM. […] The following formulas were used to predict the vicagrel hydrolase activities of CES2 (VCES2, HIM), and AADAC (VAADAC, HIM) in HIM:
(3) VAADAC, HIM = Vrec−AADAC × […], HIM
(§3) V rec-CES2 and V rec-AADAC are the vicagrel hydrolase activities of recombinant CES2 and AADAC, respectively. The following equations were used to calculate the contributions of CES2 and AADAC to vicagrel hydrolase activities in HIM:
(5) AADAC in HIM(%) = (VAADAC, HIM/VHIM) × 100
(§4) where the V HIM value is the observed vicagrel hydrolase activities in HIM.

[11] = parameters: method as in Liu et al., 2017; details: healthy subjects, oral vicagrel tablets, during the sampling period; ref Liu et al., 2017; cited from earlier work
AADAC [12] = molecular target: T2, AADAC (Homo sapiens, UniProt P22760); experiment: Hydrolase activity by recombinant human AADAC
T2 sequence (P22760 1-399): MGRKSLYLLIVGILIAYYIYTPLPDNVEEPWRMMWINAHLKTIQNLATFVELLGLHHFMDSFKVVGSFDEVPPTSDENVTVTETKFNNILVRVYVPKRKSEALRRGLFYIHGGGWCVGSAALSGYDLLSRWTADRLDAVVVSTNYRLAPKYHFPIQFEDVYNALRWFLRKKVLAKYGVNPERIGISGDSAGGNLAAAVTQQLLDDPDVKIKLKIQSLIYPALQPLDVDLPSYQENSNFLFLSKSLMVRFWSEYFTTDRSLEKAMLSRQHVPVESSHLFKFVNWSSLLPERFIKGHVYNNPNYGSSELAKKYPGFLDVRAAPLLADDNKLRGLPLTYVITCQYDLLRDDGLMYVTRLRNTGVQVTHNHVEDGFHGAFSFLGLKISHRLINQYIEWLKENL

CES2 [13] = experiment: Contribution of CES2 to vicagrel hydrolase activity in HIM (RAF method); type: in vitro ADME, human
Description: as §2
(2) VCES2, HIM = Vrec−CES2 × RAFCES2, HIM
as §3
(4) CES2 in HIM(%) = (VCES2, HIM/VHIM) × 100
as §4

CES2 [14] = molecular target: T3, CES2 (Homo sapiens, UniProt O00748); experiment: Hydrolase activity by recombinant human CES2; type: in vitro ADME
T3 construct: purchased Cypex Ltd. (Scotland, United Kingdom)
T3 sequence (O00748 27-559): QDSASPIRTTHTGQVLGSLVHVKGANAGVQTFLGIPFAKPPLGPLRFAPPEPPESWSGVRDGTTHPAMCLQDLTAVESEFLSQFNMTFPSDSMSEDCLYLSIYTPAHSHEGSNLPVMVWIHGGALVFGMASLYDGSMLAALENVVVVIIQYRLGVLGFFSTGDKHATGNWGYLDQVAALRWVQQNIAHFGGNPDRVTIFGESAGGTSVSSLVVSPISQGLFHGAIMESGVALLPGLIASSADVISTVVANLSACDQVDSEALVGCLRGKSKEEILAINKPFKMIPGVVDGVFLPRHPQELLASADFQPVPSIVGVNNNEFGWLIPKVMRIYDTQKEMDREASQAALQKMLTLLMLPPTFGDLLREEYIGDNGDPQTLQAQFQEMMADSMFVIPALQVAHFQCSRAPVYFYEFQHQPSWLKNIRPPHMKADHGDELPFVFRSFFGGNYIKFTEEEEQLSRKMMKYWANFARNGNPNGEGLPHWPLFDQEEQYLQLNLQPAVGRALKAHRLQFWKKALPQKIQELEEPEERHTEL
Description: as §1

[15] = substrate: COC(=O)[C@H](c1ccccc1Cl)N1CCc2sc(OC(C)=O)cc2C1; experiment: Hydrolase activity by recombinant human CES2; type: in vitro ADME; details: other: recombinant CES2 0.01 mg/mL, 1 min; pH 7.4; 37.0 °C
Description: as §1

not read = substrate: COC(=O)[C@H](c1ccccc1Cl)N1CCc2sc(OC(C)=O)cc2C1; experiment: not read; details: other: recombinant AADAC 0.015 mg/mL, 2 min; pH 7.4; 37.0 °C

COC(=O)[C@H](c1ccccc1Cl)N1CCc2sccc2C1 [clopidogrel]
Share of clopidogrel oxidized by CYP450s to generate the active thiol metabolite H4 [1]: 15% | Share of clopidogrel hydrolyzed by CES1 to an inactive carboxylic acid metabolite (CES1 [2]): approximately 85%

CN(C)C(=O)C(CCN1CCC(O)(c2ccc(Cl)cc2)CC1)(c1ccccc1)c1ccccc1 [loperamide]
Inhibition of vicagrel hydrolysis [3]: 40%

COC(=O)[C@H](c1ccccc1Cl)N1CCc2sc(OC(C)=O)cc2C1 [vicagrel, Vicagrel]
Vmax of vicagrel hydrolysis ([4]; HIM 0.01 mg/mL, 1 min): 347.2 ± 6.4 nmol/min/mg protein | Hydrolase activity (vicagrel), VHIM ([4]; human, 1 min, pH 7.4): 48.0 nmol/min/mg | microsomal CLint ([4]; human, microsomes, pH 7.4): 53100 ± 1040 µL/min/mg | Km at 1 min ([4]; human, pH 7.4): 6.54 ± 0.45 µM | Hydrolase activity (vicagrel) ([5]; HLM): 96.5 nmol/min/mg | Vmax of vicagrel hydrolysis ([5]; HLM 0.01 mg/mL, 1 min): 917.6 ± 23.5 nmol/min/mg protein | Km at 1 min ([5]; human, human liver microsomes, pH 7.4, HLM 0.01 mg/mL, 1 min, formation of 2-oxo-clopidogrel, read-out: Km of vicagrel hydrolysis): 7.18 ± 0.66 µM | microsomal CLint (CES1 [6]; human, recombinant human CES1, pH 7.4, recombinant CES1, calculated as Vmax/Km, read-out: CLint of vicagrel hydrolysis): 29000 ± 2300 µL/min/mg | Hydrolase activity (vicagrel) (CES1 [6]; recombinant CES1): 17.3 nmol/min/mg | Vmax of vicagrel hydrolysis (CES1 [6]; recombinant CES1 0.01 mg/mL, 2 min): 264.0 ± 16.6 nmol/min/mg protein | Production of H4 from vicagrel relative to clopidogrel ([7]; oral, same dose): four to six times higher | Production of 2-oxo-clopidogrel from vicagrel relative to clopidogrel [7]: about six times | Vmax of vicagrel hydrolysis ([8]; DIM 0.01 mg/mL, 1 min): 171.4 ± 3.9 nmol/min/mg protein | Km at 1 min ([8]; dog, dog intestine microsomes, pH 7.4, DIM 0.01 mg/mL, 1 min, read-out: Km of vicagrel hydrolysis): 8.37 ± 0.69 µM | microsomal CLint ([8]; dog, dog intestine microsomes, pH 7.4, DIM, calculated as Vmax/Km, read-out: CLint of vicagrel hydrolysis): 20500 ± 1300 µL/min/mg | Antiplatelet effects versus clopidogrel [9]: Comparable antiplatelet effects | Contribution of AADAC to vicagrel hydrolysis (AADAC [10]): approximately 53% | Contribution of AADAC to vicagrel hydrolysis (AADAC [10]; listed as Vicagrel): 53.1% | Parent drug in human plasma [11]: undetectable | microsomal CLint (AADAC [12]; human, recombinant human AADAC, pH 7.4): 39000 ± 3100 µL/min/mg | Hydrolase activity (vicagrel), Vrec-AADAC (AADAC [12]; recombinant AADAC): 21.8 nmol/min/mg | Vmax of vicagrel hydrolysis (AADAC [12]; recombinant AADAC 0.015 mg/mL, 2 min): 381.7 ± 24.7 nmol/min/mg protein | Contribution of CES2 to vicagrel hydrolysis (CES2 [13]; HIM, RAF method, procaine as probe): 44.2% | Sum of the contributions of CES2 and AADAC to vicagrel hydrolysis (CES2 [13]; HIM, RAF method, CES2 plus AADAC): 97.3% | Calculated vicagrel hydrolase activity of CES2 in HIM (VCES2, HIM) (CES2 [13]; Vrec-CES2 × RAFCES2, HIM): 21.2 nmol/min/mg protein | microsomal CLint (CES2 [14]; human, recombinant human CES2, pH 7.4, recombinant CES2, calculated as Vmax/Km, read-out: CLint of vicagrel hydrolysis): 46100 ± 3100 µL/min/mg | Hydrolase activity (vicagrel), Vrec-CES2 (CES2 [14]; recombinant CES2): 26.1 nmol/min/mg | Vmax of vicagrel hydrolysis (CES2 [14]; recombinant CES2 0.01 mg/mL, 1 min): 331.2 ± 14.9 nmol/min/mg protein

B1: recombinant human CES2 (Homo sapiens) (protein)
chain: QDSASPIRTTHTGQVLGSLVHVKGANAGVQTFLGIPFAKPPLGPLRFAPPEPPESWSGVRDGTTHPAMCLQDLTAVESEFLSQFNMTFPSDSMSEDCLYLSIYTPAHSHEGSNLPVMVWIHGGALVFGMASLYDGSMLAALENVVVVIIQYRLGVLGFFSTGDKHATGNWGYLDQVAALRWVQQNIAHFGGNPDRVTIFGESAGGTSVSSLVVSPISQGLFHGAIMESGVALLPGLIASSADVISTVVANLSACDQVDSEALVGCLRGKSKEEILAINKPFKMIPGVVDGVFLPRHPQELLASADFQPVPSIVGVNNNEFGWLIPKVMRIYDTQKEMDREASQAALQKMLTLLMLPPTFGDLLREEYIGDNGDPQTLQAQFQEMMADSMFVIPALQVAHFQCSRAPVYFYEFQHQPSWLKNIRPPHMKADHGDELPFVFRSFFGGNYIKFTEEEEQLSRKMMKYWANFARNGNPNGEGLPHWPLFDQEEQYLQLNLQPAVGRALKAHRLQFWKKALPQKIQELEEPEERHTEL
notes: purchased Cypex Ltd. (Scotland, United Kingdom)
Km [15]: 7.19 ± 0.16 µM

B2: recombinant human AADAC (Homo sapiens) (protein)
chain: MGRKSLYLLIVGILIAYYIYTPLPDNVEEPWRMMWINAHLKTIQNLATFVELLGLHHFMDSFKVVGSFDEVPPTSDENVTVTETKFNNILVRVYVPKRKSEALRRGLFYIHGGGWCVGSAALSGYDLLSRWTADRLDAVVVSTNYRLAPKYHFPIQFEDVYNALRWFLRKKVLAKYGVNPERIGISGDSAGGNLAAAVTQQLLDDPDVKIKLKIQSLIYPALQPLDVDLPSYQENSNFLFLSKSLMVRFWSEYFTTDRSLEKAMLSRQHVPVESSHLFKFVNWSSLLPERFIKGHVYNNPNYGSSELAKKYPGFLDVRAAPLLADDNKLRGLPLTYVITCQYDLLRDDGLMYVTRLRNTGVQVTHNHVEDGFHGAFSFLGLKISHRLINQYIEWLKENL
Km (not read): 9.79 ± 1.35 µM
